Source: PubChem BioAssay AID330 (DTP/NCI, 2004)
Values joined by “and” are separate entries in the source; they are usually repeats but may differ in a detail not shown here. Identical values can stand only once. Inconclusive results and toxic doses are left out.

System: P388 leukemia ip, CD2F1 mice, survival T/C
Experiment: NCI In Vivo Anticancer Drug Screen. Data for tumor model P388 Leukemia (intraperitoneal) in CD2F1 (CDF1) mice
Conditions: endpoint: median survival time, higher = longer survival
Summary of the method: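 Mice carrying the transplanted tumor received test compound or vehicle. Survival was recorded in each group, and the value is the treated-group measurement divided by that of the vehicle-treated control group.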

[1] = dose: 15.0 mg/kg/injection, schedule: Q01DX005 (ip), vehicle: saline with Tween-80
[2] = dose: 240.0 mg/kg/injection, schedule: Q01DX005 (ip), vehicle: saline with Tween-80
[3] = dose: 50.0 mg/kg/injection, schedule: Q01DX005 (ip), vehicle: Klucel (hydroxypropylcellulose) (HPC)
[4] = dose: 12.5 mg/kg/injection, schedule: Q01DX009 (ip), vehicle: distilled water + Tween-80
[5] = dose: 25.0 mg/kg/injection, schedule: Q01DX009 (ip), vehicle: distilled water + Tween-80
[6] = dose: 50.0 mg/kg/injection, schedule: Q01DX009 (ip), vehicle: distilled water + Tween-80
[7] = dose: 100.0 mg/kg/injection, schedule: Q01DX009 (ip), vehicle: distilled water + Tween-80
[8] = dose: 200.0 mg/kg/injection, schedule: Q01DX009 (ip), vehicle: distilled water + Tween-80
[9] = dose: 50.0 mg/kg/injection, schedule: Q01DX005 (ip), vehicle: saline with Tween-80
[10] = dose: 100.0 mg/kg/injection, schedule: Q01DX005 (ip), vehicle: saline with Tween-80
[11] = dose: 200.0 mg/kg/injection, schedule: Q01DX005 (ip), vehicle: saline with Tween-80
[12] = dose: 60.0 mg/kg/injection, schedule: Q01DX005 (ip), vehicle: saline with Tween-80
[13] = dose: 120.0 mg/kg/injection, schedule: Q01DX005 (ip), vehicle: saline with Tween-80
[14] = dose: 12.5 mg/kg/injection, schedule: Q01DX005 (ip), vehicle: Klucel (hydroxypropylcellulose) (HPC)
[15] = dose: 25.0 mg/kg/injection, schedule: Q01DX005 (ip), vehicle: Klucel (hydroxypropylcellulose) (HPC)
[16] = dose: 50.0 mg/kg/injection, schedule: Q01DX009 (ip), vehicle: saline with Tween-80
[17] = dose: 100.0 mg/kg/injection, schedule: Q01DX009 (ip), vehicle: Klucel (hydroxypropylcellulose) (HPC)
[18] = dose: 200.0 mg/kg/injection, schedule: Q01DX009 (ip), vehicle: Klucel (hydroxypropylcellulose) (HPC)

Structure (SMILES): COc1cc2c(c(OC)c1OC)C1=NNC(=O)C1(C)CC2 (stereo not given)
- T/C (dose: 100.0 mg/kg/injection, schedule: Q04DX003 (ip), vehicle: Klucel (hydroxypropylcellulose) (HPC)): 91 % of control
- T/C (dose: 200.0 mg/kg/injection, schedule: Q04DX003 (ip), vehicle: Klucel (hydroxypropylcellulose) (HPC)): 88 % of control
- T/C (dose: 400.0 mg/kg/injection, schedule: Q04DX003 (ip), vehicle: Klucel (hydroxypropylcellulose) (HPC)): 92 % of control

Structure (SMILES): C1C[S][Hg][S]CCO1
- T/C (dose: 6.25 mg/kg/injection, schedule: Q01DX009 (ip), vehicle: suspension in saline): 105 % of control
- T/C (dose: 12.5 mg/kg/injection, schedule: Q01DX009 (ip), vehicle: suspension in saline): 102 % of control

Structure (SMILES): O=C(CNC(=O)Nc1ccc(Cl)c(Cl)c1)N/N=C/c1c(O)ccc2ccccc12
- T/C (dose: 3.75 mg/kg/injection, schedule: Q01DX005 (ip), vehicle: saline with Tween-80): 96 % of control
- T/C (dose: 7.5 mg/kg/injection, schedule: Q01DX005 (ip), vehicle: saline with Tween-80): 102 % of control
- T/C [1]: 88 % of control and 94 % of control
- T/C [2]: 100 % of control

Structure (SMILES): CC1(C)CC(C)(OC(=O)c2ccc(Cl)cc2)[N+]([O-])=N1 (stereo not given)
- T/C (dose: 12.5 mg/kg/injection, schedule: Q01DX009 (ip), vehicle: other): 98 % of control
- T/C (dose: 25.0 mg/kg/injection, schedule: Q01DX009 (ip), vehicle: other): 98 % of control
- T/C (dose: 50.0 mg/kg/injection, schedule: Q01DX009 (ip), vehicle: other): 106 % of control
- T/C (dose: 100.0 mg/kg/injection, schedule: Q01DX009 (ip), vehicle: other): 89 % of control
- T/C (dose: 200.0 mg/kg/injection, schedule: Q01DX009 (ip), vehicle: other): 89 % of control

Structure (SMILES): COc1ccccc1P(=O)(CCP(=O)(c1ccccc1)c1ccccc1OC)c1ccccc1 (stereo not given)
- T/C [3]: 103 % of control
- T/C (dose: 100.0 mg/kg/injection, schedule: Q01DX005 (ip), vehicle: Klucel (hydroxypropylcellulose) (HPC)): 97 % of control
- T/C (dose: 200.0 mg/kg/injection, schedule: Q01DX005 (ip), vehicle: Klucel (hydroxypropylcellulose) (HPC)): 91 % of control

Structure (SMILES): CSCCn1ccnc1[N+](=O)[O-]
- T/C [4]: 100 % of control
- T/C [5]: 96 % of control
- T/C [6]: 100 % of control
- T/C [7]: 101 % of control
- T/C [8]: 108 % of control

Structure (SMILES): O=C(O)CCC(=O)NNc1nc2ccccc2s1
- T/C (dose: 60.0 mg/kg/injection, schedule: Q01DX005 (ip), vehicle: Klucel (hydroxypropylcellulose) (HPC)): 102 % of control
- T/C (dose: 120.0 mg/kg/injection, schedule: Q01DX005 (ip), vehicle: Klucel (hydroxypropylcellulose) (HPC)): 104 % of control
- T/C (dose: 240.0 mg/kg/injection, schedule: Q01DX005 (ip), vehicle: Klucel (hydroxypropylcellulose) (HPC)): 97 % of control

Structure (SMILES): O=[N+]([O-])C1=CC(=N/Br)/C=CC/1=N/Br
- T/C [9]: 94 % of control
- T/C [10]: 100 % of control
- T/C [11]: 118 % of control

Structure (SMILES): O=C(c1ccc([N+](=O)[O-])cc1)c1cc2ccccc2oc1=O
- T/C [12]: 91 % of control
- T/C [13]: 94 % of control
- T/C [2]: 90 % of control

Structure (SMILES): CC(C)C(=O)[O][Bi]([c]1ccccc1)[c]1ccccc1
- T/C (dose: 6.25 mg/kg/injection, schedule: Q01DX005 (ip), vehicle: Klucel (hydroxypropylcellulose) (HPC)): 108 % of control and 110 % of control
- T/C [14]: 101 % of control and 113 % of control
- T/C [15]: 105 % of control and 113 % of control

Structure (SMILES): NNc1cccc(C(F)(F)F)c1
- T/C (dose: 12.5 mg/kg/injection, schedule: Q01DX009 (ip), vehicle: saline with Tween-80): 100 % of control
- T/C (dose: 25.0 mg/kg/injection, schedule: Q01DX009 (ip), vehicle: saline with Tween-80): 90 % of control
- T/C (dose: 25.0 mg/kg/injection, schedule: Q04DX003 (ip), vehicle: saline with Tween-80): 100 % of control
- T/C [16]: 95 % of control
- T/C (dose: 50.0 mg/kg/injection, schedule: Q04DX003 (ip), vehicle: saline with Tween-80): 105 % of control
- T/C (dose: 100.0 mg/kg/injection, schedule: Q04DX003 (ip), vehicle: saline with Tween-80): 100 % of control

Structure (SMILES): O=[N+]([O-])C(CO)C(CO)[N+](=O)[O-] (stereo not given)
- T/C [17]: 110 % of control
- T/C (dose: 100.0 mg/kg/injection, schedule: Q01DX009 (ip), vehicle: suspension in saline): 103 % of control
- T/C [18]: 108 % of control
- T/C (dose: 200.0 mg/kg/injection, schedule: Q01DX009 (ip), vehicle: suspension in saline): 100 % of control
- T/C (dose: 400.0 mg/kg/injection, schedule: Q01DX009 (ip), vehicle: Klucel (hydroxypropylcellulose) (HPC)): 111 % of control
- T/C (dose: 400.0 mg/kg/injection, schedule: Q01DX009 (ip), vehicle: suspension in saline): 109 % of control

Structure (SMILES): C1=CCC(CC[Si]23OCCN(CCO2)CCO3)CC1 (stereo not given)
- T/C [14]: 103 % of control
- T/C [15]: 96 % of control
- T/C [3]: 101 % of control and 96 % of control

Structure (SMILES): COC(=O)c1ccc(N)c2c(N)ccc(C(=O)OC)c12
- T/C [12]: 98 % of control
- T/C [13]: 114 % of control
- T/C [2]: 97 % of control

Structure (SMILES): NC(Cc1ccc(O)cc1)C(=O)N/N=C/c1ccc2c(c1)OCO2 (stereo not given)
- T/C [9]: 92 % of control
- T/C [10]: 99 % of control
- T/C [11]: 103 % of control

Structure (SMILES): COc1ccc(/C=N/NC(=O)c2ccncc2)cc1F
- T/C [1]: 100 % of control
- T/C (dose: 30.0 mg/kg/injection, schedule: Q01DX005 (ip), vehicle: saline with Tween-80): 99 % of control
- T/C [12]: 101 % of control and 88 % of control
- T/C [13]: 88 % of control
- T/C [2]: 95 % of control

Structure (SMILES): CC1C(C#N)C(=O)NC(=O)C1C#N (stereo not given)
- T/C (dose: 50.0 mg/kg/injection, schedule: Q01DX009 (ip), vehicle: saline): 99 % of control
- T/C (dose: 100.0 mg/kg/injection, schedule: Q01DX009 (ip), vehicle: saline): 100 % of control
- T/C (dose: 200.0 mg/kg/injection, schedule: Q01DX009 (ip), vehicle: saline): 100 % of control

Structure (SMILES): CCOC(C)OCCCI (stereo not given)
- T/C [12]: 105 % of control
- T/C [13]: 101 % of control
- T/C [2]: 105 % of control

Structure (SMILES): CC1(C)CC(=O)C2(OC3=C([Se]2)C(=O)CC(C)(C)C3)C(=O)C1
- T/C [16]: 110 % of control
- T/C (dose: 100.0 mg/kg/injection, schedule: Q01DX009 (ip), vehicle: saline with Tween-80): 107 % of control
- T/C (dose: 200.0 mg/kg/injection, schedule: Q01DX009 (ip), vehicle: saline with Tween-80): 107 % of control

Structure (SMILES): O=c1c2ccccc2nc2n1CCc1c-2[nH]c2ccccc12
- T/C (dose: 3.75 mg/kg/injection, schedule: Q01DX009 (ip), vehicle: saline with Tween-80): 93 % of control
- T/C (dose: 7.5 mg/kg/injection, schedule: Q01DX009 (ip), vehicle: saline with Tween-80): 98 % of control
- T/C (dose: 15.0 mg/kg/injection, schedule: Q01DX009 (ip), vehicle: saline with Tween-80): 93 % of control

Structure (SMILES): C=C1C[C@](C(N)=O)(C2OC3OC(C)(C)OC3C2OCc2ccccc2)OC1=O (stereo not given in full)
- T/C (dose: 25.0 mg/kg/injection, schedule: Q01DX005 (ip), vehicle: saline with Tween-80): 103 % of control
- T/C [9]: 100 % of control
- T/C (dose: 100.0 mg/kg/injection, schedule: Q01DX001 (ip), vehicle: saline with Tween-80): 96 % of control
- T/C [10]: 92 % of control

Structure (SMILES): CC(=O)C1C(=O)C(=O)N(c2cc(C)ccc2O)C1=O (stereo not given)
- T/C (dose: 50.0 mg/kg/injection, schedule: Q01DX009 (ip), vehicle: Klucel (hydroxypropylcellulose) (HPC)): 106 % of control
- T/C [17]: 107 % of control
- T/C [18]: 104 % of control

Structure (SMILES): CCOC(=O)c1cc2c(OC)c(OC)ccc2c2[nH]cc(C#N)c(=O)c12
- T/C [4]: 100 % of control
- T/C [5]: 94 % of control
- T/C [6]: 93 % of control
- T/C [7]: 90 % of control
- T/C [8]: 86 % of control

Structure (SMILES): COc1cccc2c1C(=O)c1c(O)c3c(c(O)c1C2=O)C[C@@](O)(C(C)=O)C[C@@H]3OC1CC(N2CCCCC2)C(O)C(C)O1 (stereo not given in full)
- T/C (dose: 1.56 mg/kg/injection, schedule: Q04DX003 (ip), vehicle: water): 111 % of control
- T/C (dose: 6.25 mg/kg/injection, schedule: Q04DX003 (ip), vehicle: distilled water + Tween-80): 191 % of control
- T/C (dose: 6.25 mg/kg/injection, schedule: Q04DX003 (ip), vehicle: water): 163 % of control
- T/C (dose: 12.5 mg/kg/injection, schedule: Q04DX003 (ip), vehicle: distilled water + Tween-80): 106 % of control
- T/C (dose: 12.5 mg/kg/injection, schedule: Q04DX003 (ip), vehicle: water): 111 % of control
- T/C (dose: 25.0 mg/kg/injection, schedule: Q04DX003 (ip), vehicle: distilled water + Tween-80): 99 % of control
